CN111909135A, “一种azd9291氘代物甲磺酸盐新盐型及其制备方法” (Tianjin University, priority 2020, dated 2020)

Tests used:
[1] = Crystal form stability, high temperature (60℃) and accelerated (40℃, RH75%) tests; format: physicochemical
[2] = Water solubility of the crystal form at 25℃ (Chinese Pharmacopoeia 2015, part IV); format: physicochemical

C=CC(=O)Nc1cc(Nc2nccc(-c3cn(C)c4ccccc34)n2)c(OC)cc1N(C)CCN(C)C [AZD9291氘代物甲磺酸盐新盐型]
crystal form transformation (XRD) ([1]; 40℃, RH75%, accelerated stability, 0, 5 and 10 days): 未发生 晶型转变
appearance, colour and crystal form change ([1]; high temperature (60℃, humidity not limited) and accelerated (40℃, RH75%), 5 and 10 days): 外观色泽及晶 型均无变化
increase in solubility relative to AZD9291 deuterated compound mesylate (WO2018214886A1 and CN201810495698.7) [2]: 3 fold
